Measured values from patent publication US4866040A, “Aminocarnitine directed pharmaceutical agents” (priority 1987, dated 1989).
Square brackets hold non-standard residues; d marks the D form. Peptide text beside a SMILES is read from it. Cya = N[CH](CS(=O)(=O)O)C(=O)O

Key:
[1] = test system: platelet Ca-activated protease; test: inhibition of platelet Ca-activated protease; type: biochemical; conditions: final in-vitro conc. 1 mM
Description: The following results were obtained for inhibition of platelet Ca-activated protease: […]

[2] = in vivo, po; cited from earlier work
[3] = test system: muscle Ca-activated protease; test: in-vivo administration, inhibition of muscle Ca-activated protease; design: species or system rats; conditions: for % Inhibition of muscle Ca-activated protease: 2 hours post IP injection
[4] = test system: Ca-activated protease; test: in vitro inhibition of Ca-activated protease; type: biochemical; conditions: for % of Control (Ca-activated protease activity): in vitro, 100 ug; for % of Control (Ca-activated protease activity) after hydrolysis: 100ug, hydrolysis at 60° C., pH 2
Description: It has been shown that in vitro carnitylleucylargininal inhibits Ca-activated protease as well as leupeptin, viz.

[5] = active transport; cited from earlier work

Compound	% Inhibition of platelet Ca-activated protease [1] [%]	% of Control (Ca-activated protease activity) [4] [%]	other results
CC(C)C[C@H](N)C(=O)N[C@H](C=O)CCCNC(=N)N [leucylargininal, leucyl argininal]	94	–	–
C[N+](C)(C)C[C@H](N)CC(=O)[O-] [aminocarnitine]	–	–	toxicity when fed orally [2]: non-toxic
CC(=O)N[C@@H](CC(C)C)C(=O)N[C@@H](CC(C)C)C(=O)N[C@H](C=O)CCCNC(=N)N [leupeptin]	98	7.9	% Inhibition of muscle Ca-activated protease ([3]; 74 umoles): 20%
E-aminoadipic acid [E-aminoadipic acid (CDI treated)]	0	–	–
N[C@@H](CS(=O)(=O)O)C(=O)O [Cysteic acid (CDI treated), cysteic acid]	0	–	–
carnitylleucylargininal	–	4.6	% Inhibition of muscle Ca-activated protease ([3]; 19 umoles): 48%; effectiveness per umole relative to leupeptin in inhibiting Ca-activated protease in skeletal muscle ([3]; injected into rats): about ten times more effective per umole
C[N+](C)(C)CC(O)CC(=O)[O-] (stereo not shown) [carnitine]	–	84	concentration in cardiac and skeletal muscle relative to plasma [5]: 50-100 times
carnitylleucylargininal dibutylacetal	–	–	% of Control (Ca-activated protease activity) after hydrolysis ([4]; 0 time): 17%; % of Control (Ca-activated protease activity) after hydrolysis ([4]; 3 hours): 1.2%; % of Control (Ca-activated protease activity) after hydrolysis ([4]; 24 hours): 100%
CC(C)CC(NC(=O)C(N)CS(=O)(=O)O)C(=O)NC(C=O)CCCNC(=N)N (stereo not drawn) [cysteicleucylargininal] (H-[Cya]-Leu-Arg-aldehyde; configuration not given here)	98	–	–
